The text below walks through data of patent US20250177582A1, “HIGH-AFFINITY LIGANDS OF FIBROBLAST ACTIVATION PROTEIN FOR TARGETED DELIVERY APPLICATIONS” (PHILOCHEM AG, priority 2022, published 2025).

The target of one test is murine FAP (Mus musculus (Mouse), UniProt P97321). Description: Inhibition assay of FAP (fluorogenic substrate Z-Gly-Pro-AMC). Format: biochemical. The conditions noted are these: substrate Z-Gly-Pro-AMC 20 μM; 66 pM murine FAP; room temperature. The method, then: (§1) Inhibition assay of FAP. The compounds were precisely weighed (range between […]) on a micro-scale (HuberLab, Sartorius QUINTIX35-1S) and dissolved in DMSO to prepare stock solutions at 1 mM. Stock solutions were further diluted with FAP activation buffer (50 mM Tris, 100 mM NaCl, 1 mM EDTA, pH=7.4) to a final DMSO concentration of 10% v/v. 10 μL of each inhibitor were serially diluted in a 384 well plate (grenier-bio one, PS, F-bottom, Black, non-binding) with 10 μL of 10% DMSO FAP buffer (1:1 dilution). FAP (human and murine) was diluted to the desired concentration with FAP activation buffer and added to the serial dilution of inhibitor (10 μL for each well). Each protein-inhibitor solution was incubated for 30 minutes at room temperature. Each measurement was performed with an enzyme concentration (FAP) lower than the expected IC50. A 60 μM solution of substrate (Z-Gly-Pro-AMC) in FAP activation buffer (<1% DMSO) was added to the plate (10 μL for each well). The reaction was incubated from 1 minute to 48 hours (see FIG. 2) at room temperature (22° C.-25° C.). The emission was read at 465 nm (excitation wavelength 360 nm) for 40 μs by Tecan Spark (s.n. 1808004082). The following controls were added to each row: positive control (no inhibitor control, 10 μL of 10% DMSO FAP buffer+10 μL of FAP solution+10 μL of substrate solution), negative control (no protein control, 10 μL of 10% DMSO FAP buffer+10 μL of FAP activation buffer+10 μL of substrate solution).
Sequence of murine FAP (P97321 whole entry): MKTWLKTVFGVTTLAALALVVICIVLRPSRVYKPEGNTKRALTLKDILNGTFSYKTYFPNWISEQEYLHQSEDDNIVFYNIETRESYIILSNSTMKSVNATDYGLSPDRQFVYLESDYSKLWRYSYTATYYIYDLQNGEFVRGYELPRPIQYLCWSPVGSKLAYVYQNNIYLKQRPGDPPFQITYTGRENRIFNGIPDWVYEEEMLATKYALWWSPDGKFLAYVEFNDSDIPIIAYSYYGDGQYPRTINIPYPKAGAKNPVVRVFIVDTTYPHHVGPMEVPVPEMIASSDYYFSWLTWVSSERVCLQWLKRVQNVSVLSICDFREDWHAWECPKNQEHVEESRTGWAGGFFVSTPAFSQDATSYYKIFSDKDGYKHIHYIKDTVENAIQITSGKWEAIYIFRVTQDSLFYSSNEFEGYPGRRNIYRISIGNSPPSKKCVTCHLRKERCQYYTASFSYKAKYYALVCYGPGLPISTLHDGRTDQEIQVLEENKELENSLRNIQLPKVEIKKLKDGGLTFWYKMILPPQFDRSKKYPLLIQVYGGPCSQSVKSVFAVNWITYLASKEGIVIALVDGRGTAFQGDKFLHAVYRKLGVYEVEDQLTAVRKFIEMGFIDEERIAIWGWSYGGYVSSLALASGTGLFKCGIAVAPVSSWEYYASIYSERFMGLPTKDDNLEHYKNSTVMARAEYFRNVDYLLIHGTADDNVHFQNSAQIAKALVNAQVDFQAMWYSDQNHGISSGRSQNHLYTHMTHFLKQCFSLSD
(§2) Normalization of values: The “% of FAP activity” can be calculated with the following formula:
(§3) FIG. 3: Inhibition assay performed with compounds 1, 2, 3, 4, 5, 6, 8 against a) 66 pM human FAP and b) 66 pM murine FAP. The concentration of substrate (Z-Gly-Pro-AMC) was kept constant=20 μM. The assay was incubated for 48 hours at 22.6° C. Error bars display SEM.
(§4) FIG. 4: a) Inhibition assay performed with compounds 8, 9 and 10 against 66 pM human FAP. The assay was incubated for 17 hours at 25° C. b) Inhibition assay performed with compound 9 against 66 pM murine FAP. The assay was incubated for 17 hours at 25° C. In both assays the concentration of substrate (Z-Gly-Pro-AMC) was kept constant=20 μM. Error bars display SEM.

In a further test the target is human FAP (Homo sapiens (Human), UniProt Q12884). Described as above. Format: biochemical. The conditions noted are these: for IC50: substrate Z-Gly-Pro-AMC 20 μM, FAP concentration lower than expected IC50 (66 pM in FIG. 3, 4), room temperature, read-out: IC50 vs human FAP; for FAP binding relative to the parent compound (in words): effect of arginine-based tail / of removing furan as group W. The method, then:
as §1, §2
The concentration of substrate (Z-Gly-Pro-AMC) was kept constant=20 μM. Dashed lines corresponds to sets of data with unstable fitting. […] Error bars display SEM.
as §3, §4
FIG. 19. A: Chemical structures and corresponding IC50(hFAP) values of compounds according to the present invention. B: Chemical structures and corresponding IC50 values of compounds where the propargyl moiety at position AA^2 was replaced by different groups (Me, iPr, Bn) using both R and S stereoisomers. The sites of modification have been highlighted with arrows. Each measurement was performed with a FAP concentration lower than the expected IC50. Depending on FAP concentration, the fluorescence was measured between 10 minutes and 48 h (at room temperature) after the addition of the fluorogenic substrate (Z-Gly-Pro-AMC). IC50 values and standard errors were calculated using “[Inhibitor] vs. response—Variable slope (four parameters)” fitting (Graphpad Prism). […] By introducing the quinoline-based moiety, a single-digit nanomolar inhibitor was obtained. […] The replacement of propargylglycine with S-phenylalanine improved potency of the lead compound of additional ˜2-folds (compound 14).

Sequence of human FAP (Q12884 whole entry): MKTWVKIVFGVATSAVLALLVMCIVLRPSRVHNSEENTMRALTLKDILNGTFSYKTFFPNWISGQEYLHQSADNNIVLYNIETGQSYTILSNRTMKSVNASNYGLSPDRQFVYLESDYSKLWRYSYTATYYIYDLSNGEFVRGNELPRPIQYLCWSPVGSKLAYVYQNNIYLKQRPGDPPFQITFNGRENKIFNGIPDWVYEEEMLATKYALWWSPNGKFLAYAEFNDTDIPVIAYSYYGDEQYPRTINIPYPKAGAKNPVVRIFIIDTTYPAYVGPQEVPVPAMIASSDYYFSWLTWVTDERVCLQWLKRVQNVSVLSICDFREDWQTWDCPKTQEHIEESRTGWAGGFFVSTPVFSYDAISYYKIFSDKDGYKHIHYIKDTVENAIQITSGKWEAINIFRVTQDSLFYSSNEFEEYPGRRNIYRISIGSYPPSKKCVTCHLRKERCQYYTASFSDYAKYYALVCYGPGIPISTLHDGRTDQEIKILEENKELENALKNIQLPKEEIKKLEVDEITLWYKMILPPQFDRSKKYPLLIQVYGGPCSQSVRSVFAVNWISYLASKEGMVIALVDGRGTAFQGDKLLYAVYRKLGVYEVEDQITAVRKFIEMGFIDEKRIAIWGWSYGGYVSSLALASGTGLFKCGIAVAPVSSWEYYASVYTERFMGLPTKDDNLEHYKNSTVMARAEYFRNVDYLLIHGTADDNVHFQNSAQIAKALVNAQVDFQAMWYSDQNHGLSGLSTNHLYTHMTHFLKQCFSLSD

Regarding `N#C[C@@H]1CC(F)(F)CN1C(=O)CCC(=O)O` [Compound 1], the IC50 was 200000 nM against murine FAP and 249000 nM on human FAP.

For `C#CC[C@@H](NC(=O)[C@H](CCCNC(=N)N(C)C)NC(=O)c1coc(CNC(=O)CCC(=O)N2CC(F)(F)C[C@H]2C#N)c1)C(=O)N[C@@H](CCCCN)C(=O)O` [Compound 3], the IC50 worked out at 38.4 nM on murine FAP and 60 nM at human FAP.

On murine FAP, `CN(C)C(=N)NCCC[C@H](NC(=O)c1coc(CNC(=O)CCC(=O)N2CC(F)(F)C[C@H]2C#N)c1)C(=O)N[C@@H](CCCCN)C(=O)O` [Compound 4] yielded a concentration for half-maximal inhibition (IC50) of 154 nM. On human FAP, the “FAP binding relative to the parent compound (in words)” value is on record as “significant improvement” and the IC50 came out at 178 nM.

On murine FAP, `C#CC[C@H](NC(=O)c1coc(CNC(=O)CCC(=O)N2CC(F)(F)C[C@H]2C#N)c1)C(=O)N[C@@H](CCCCN)C(=O)O` [Compound 5] yielded an IC50 of 3900 nM.

On to `C#CC[C@H](NC(=O)CCC(=O)N1CC(F)(F)C[C@H]1C#N)C(=O)N[C@@H](CCCCN)C(=O)O` [Compound 6], for which 22700 nM corresponded to half-maximal inhibition against murine FAP (IC50). For the same compound, on human FAP, the “FAP binding relative to the parent compound (in words)” value was “worsening” and the IC50 was 17200 nM.

Turning to `C#CC[C@H](NC(=O)CCC(=O)Nc1cccc2c(C(=O)NCC(=O)N3CC(F)(F)C[C@H]3C#N)ccnc12)C(=O)N[C@@H](CCCCN)C(=O)O` [Compound 10], the IC50 on human FAP is 4.38 nM.

As to `CN(C)C(=N)NCCC[C@H](NC(=O)CCC(=O)Nc1cccc2c(C(=O)NCC(=O)N3CC(F)(F)C[C@H]3C#N)ccnc12)C(=O)N[C@@H](Cc1ccccc1)C(=O)N[C@@H](CCCCN)C(=O)O` [Compound 11], at human FAP (SAR comparison), the “FAP inhibition potency (in words)” value is listed as “picomolar range”. Besides, the IC50 on human FAP was determined as 0.156 nM.

`N#C[C@@H]1CC(F)(F)CN1C(=O)CNC(=O)c1ccnc2c(NC(=O)CCC(=O)N[C@@H](CCCNC(=N)N)C(=O)N[C@@H](Cc3ccccc3)C(=O)N[C@@H](CCCCN)C(=O)O)cccc12` [Compound 14]: the “improvement of potency over the lead compound on replacing propargylglycine with S-phenylalanine” value on human FAP (L-arginine building block (R=H)) is on record as roughly 2 folds. Moreover, at human FAP, the IC50 was found to be 0.353 nM.

For the compound `N#C[C@@H]1CC(F)(F)CN1C(=O)CNC(=O)c1ccnc2c(NC(=O)CCC(=O)N[C@@H](CCCNC(=N)N)C(=O)N[C@H](Cc3ccccc3)C(=O)N[C@@H](CCCCN)C(=O)O)cccc12` [Compound 15], the IC50 on human FAP was 604 nM.

As for `CC(C)[C@H](NC(=O)[C@H](CCCNC(=N)N)NC(=O)CCC(=O)Nc1cccc2c(C(=O)NCC(=O)N3CC(F)(F)C[C@H]3C#N)ccnc12)C(=O)N[C@@H](CCCCN)C(=O)O` [Compound 16], the IC50 on human FAP was found to be 1.66 nM.

Take `CC(C)[C@@H](NC(=O)[C@H](CCCNC(=N)N)NC(=O)CCC(=O)Nc1cccc2c(C(=O)NCC(=O)N3CC(F)(F)C[C@H]3C#N)ccnc12)C(=O)N[C@@H](CCCCN)C(=O)O` [Compound 17]: the IC50 at human FAP was 0.697 nM.

Take `C[C@H](NC(=O)[C@H](CCCNC(=N)N)NC(=O)CCC(=O)Nc1cccc2c(C(=O)NCC(=O)N3CC(F)(F)C[C@H]3C#N)ccnc12)C(=O)N[C@@H](CCCCN)C(=O)O` [Compound 18]: the IC50 on human FAP is 1.54 nM.

Take `C[C@@H](NC(=O)[C@H](CCCNC(=N)N)NC(=O)CCC(=O)Nc1cccc2c(C(=O)NCC(=O)N3CC(F)(F)C[C@H]3C#N)ccnc12)C(=O)N[C@@H](CCCCN)C(=O)O` [Compound 19]: the IC50 at human FAP stood at 0.991 nM.

For `CN(C)C(=N)NCCC[C@H](NC(=O)CCC(=O)Nc1cccc2c(C(=O)NCC(=O)N3CC(F)(F)C[C@H]3C#N)ccnc12)C(=O)N[C@@H](Cc1ccccc1)C(=O)NCCNC(=O)OC(C)(C)C` [Compound 26], the IC50 at human FAP was determined as 0.0748 nM.

Turning to `CN(C)C(=N)NCCC[C@H](NC(=O)CCC(=O)Nc1cccc2c(C(=O)NCC(=O)N3CC(F)(F)C[C@H]3C#N)ccnc12)C(=O)N[C@@H](Cc1ccccc1)C(=O)NCCN` [Compound 27], the IC50 at human FAP stood at 1.02 nM.

With `N#C[C@@H]1CC(F)(F)CN1C(=O)CN` [reference compound], the IC50 at human FAP came out at 24100 nM.

One may read the IC50 as the concentration needed to halve the response being measured.
